The results in this text go back to patent US20190350240A1, “Electrolyte-Enhanced Sweetener and Consumable Products Obtained” (priority 2018, published 2019).

A short description of series [1]: Carbohydrate screen: flavor at strength of 10% sucrose in water, and mixed with the sweetener composition. Type of series: in vivo. Conditions: dissolved into one liter of water to a strength of 10% sucrose. The protocol: Natural sugars and sugar alcohols were screened from commercial sources as candidates for the carbohydrate composition. Refined and unrefined cane sugar, brown sugar, cane juice sugar, maple sugar, coconut sugar, glucose, fructose, and erythritol were dissolved into one liter of water to a strength of 10% sucrose and evaluated for flavor.
Both refined and unrefined cane sugar solutions were mixed with solutions containing the sweetener composition mixed to a strength of 10% sucrose.

A short description of series [2]: Salt Screen #2: thick and heavy flavor before unpleasant off-flavor (taste, TAS). The class given is in vivo. The text has this: The second salt screen that was employed tested whether each electrolyte salt could elicit a thick and heavy flavor before it elicited an unpleasant off-flavor, such as saltiness, bitterness, or chalkiness.
Series [3] can be described thus: Salt Screen #4: compatibility (CMP) in sweetened cold-brewed coffee and tea. Type of series: in vivo. Conditions: sweetener compositions in cold-brewed coffee and tea, pH-sensitive flavors. The protocol: The fourth salt screen that was employed tested whether each electrolyte salt could enhance the sweetener compositions used to sweeten cold-brewed coffee and tea without disturbing the flavors of these pH-sensitive beverages. The disturbance of pH-sensitive flavors is an important screen because many electrolyte salts influence the pH of the beverages to which they are added. This screen was only applied to the five electrolyte salts that passed the three earlier salt screens.

For series [4] the following is noted: in sweetener compositions exposed to ambient air (hygroscopicity). The source says: The third salt screen that was employed tested whether each electrolyte salt could enhance the flavor of sweetener compositions and remain shelf stable when exposed to ambient air. This screen is related to the water solubility of the salt. When salts have too much water solubility, they can become hygroscopic which means they absorb water from ambient air. Hygroscopic salts become wet and clumpy when exposed to ambient air, and they cause sweetener compositions containing them to become difficult to package and dispense because of this instability to air exposure.
This third salt screen is complementary to the first salt screen because it identifies salts with too much water solubility, while the first salt screen identifies salts with too little water solubility.

Series [5] is described as follows: Sugar-like flavor judged by taste judges in water versus 10% or 20% sucrose (taste, intensity, thickness, total). Type of series: in vivo. Conditions: for improvement in sugar-like flavor: at optimal dose or ratio, versus starting composition without the added ingredient (zero mg/L; pure S1); for optimal level for sugar-like flavor: potassium in 1300 mg/L HPS, sodium in 1300 mg/L HPS + 200 mg/L potassium. The text has this:
The compositions and methods that embody this invention describe how to form electrolyte-enhanced sweetener compositions that better reproduce the flavor of natural sugar with negligible calories and with favorable physical properties. According to these methods, sugar-like flavor was defined by the numerical consensus of four criteria which were sugar-like taste, intensity, thickness, and compatibility and will be described below.
The four criteria were quantified numerically as four percentile scores. Scores of 100% represented the complete and satisfying reproduction of each criterion of sugar-like flavor. For reference, naturally-refined cane sugar received percentile scores of 100% across all criteria because of how the criteria were defined.
Taste (TAS) The criterion of sugar-like taste encompasses how well a sweetener reproduces the taste of sugar at a high level of sweetness corresponding to a 10% sucrose solution. Ten percent sucrose is equivalent to a 12-ounce soft drink (355 milliliters) sweetened with 36 grams of sucrose. For reference, the sweet taste of sugar develops and recedes across the entire tongue with each tasting in a characteristic way. The time profile of sugar's sweetness is something we generally take for granted until we taste a sweetener with a different time profile that makes it taste unnatural and unsatisfying.
According to a preferred embodiment of this invention, the tastes of sweetener compositions (TAS) were compared to 10% sucrose and evaluated based on the following taste and olfactory flavor properties: • 1. Sweetness across the entire tongue and not in throat; • 2. Rapid onset of sweetness without delay; • 3. Rapid decay of sweetness without lingering after-taste; • 4. Sweetness without bitterness; • 5. Subtle caramel flavor without off-flavors.
Intensity (INT) The criterion of sugar-like intensity represents how well a sweetener reproduces the same five taste properties of sugar (represented by TAS) but at a very high level of sweetness typical in desserts. Drinking water sweetened with 20% sucrose is used as a taste reference for evaluating INT.
Thickness (THK) The criterion of sugar-like thickness represents how well a sweetener reproduces the thick texture of sugar-sweetening that becomes syrupy at higher dose levels. Drinking water samples sweetened with 10% sucrose and with 20% sucrose are used as taste references for evaluating THK.
Total (TOT) The consensus of the percentile scores for the four criteria was determined by numerical averaging to form a total score of sugar-like flavor.
The first three criteria for sugar-like flavor—taste TAS, intensity INT, and thickness THK—were evaluated by taste judges who compared water sweetened to a level of either 10% or 20% sucrose to water sweetened with various sweetener compositions. A level of 10% sucrose represents the sweetness of typical soft drinks and 20% sucrose represents the sweetness of typical desserts.
Taste judges initially evaluated the sugar-like taste TAS and thickness THK of sweetener compositions at the sweetness level of typical soft drinks. They rinsed their mouths with plain water and then evaluated a 100 mL sample of 10% sucrose solution. They took a 15 mL aliquot of the sample into the mouth and swished it around for about 15 seconds. For each mouthful, they evaluated the time course of sweetness onset and decay, natural sugar flavors, off-flavors, and thickness, and they expelled the aliquot into a waste receptacle. Judges continued taking a series of mouthfuls up to a total volume of 100 mL to evaluate the changes in flavor perception from one mouthful to the next related to the natural loss of perceived sweetness, flavor, and thickness of sugar solutions. This protocol was then repeated for each 100 mL sample of spring water sweetened with various sweetener compositions. […]

The conditions of series [6]: cool drinking water, without lengthy stirring or heating. The source says: The first salt screen that was employed tested whether each electrolyte salt had sufficient water solubility. The screen tested whether each salt could dissolve sufficiently into cool drinking water and […] without the need for lengthy stirring or heating.
[7] abbreviates: thick and heavy flavor before saltiness, bitterness or chalkiness.

The structures appear in SMILES notation. “Also recorded” adds a separate entry of the source.

`O=C(CO)[C@@H](O)[C@H](O)[C@H](O)CO` [Fructose, fructose]: the “flavor evaluation of carbohydrate candidates” value in series [1] is “lose its sweetness at higher temperatures”.

On to `O=C([O-])[O-].[Ca+2]` [Calcium Carbonate, calcium carbonate], for which the “Does the Electrolyte Salt Have Suitable Taste (TAS)?” value in series [2] (in vivo) is “NO, Develops chalky and dry flavor; also recorded: tasted chalky”.

`O=C([O-])O.[Na+]` [Sodium Bicarbonate, sodium bicarbonate]: the “Does the Electrolyte Salt have Suitable Compatibility (CMP)?” value was “NO, Develops sour/chalky flavor” in series [3]; “sour and chalky” in series [3] (listed as sodium carbonate). In series [2] (setting [7]), the “Does the Electrolyte Salt Have Suitable Taste (TAS)?” value is “Yes”.

Consider `[Cl-].[Cl-].[Mg+2]` [Magnesium Chloride, magnesium chloride], for which, in series [2] (in vivo), the “Does the Electrolyte Salt Have Suitable Taste (TAS)?” value is listed as “Yes”.

As for `[Ca+2].[Cl-].[Cl-]` [Calcium Chloride, calcium chloride], in series [2] (in vivo), the “Does the Electrolyte Salt Have Suitable Taste (TAS)?” value was “Yes”.

Consider `O=P([O-])(O)O.[Na+]` [Sodium Phosphate Monobasic, sodium phosphate monobasic], for which the “Does the Electrolyte Salt have Suitable Compatibility (CMP)?” value in series [3] is “NO, Develops sour/chalky flavor”; in series [3] (listed as sodium phosphate monobasic), “sour and chalky”. The “Does the Electrolyte Salt Have Suitable Taste (TAS)?” value in series [2] (setting [7]) is reported as “Yes”. Moreover, the “Does the Electrolyte Salt have Suitable Shelf Stability?” value in series [4] is given as “Yes”.

Regarding `OC[C@@H](O)[C@@H](O)CO` [Erythritol, erythritol], in series [1], the “flavor evaluation of carbohydrate candidates” value was “drying sensation on the tongue or cooling sensation on the throat”.

As for `[Cl-].[K+]` [Potassium Chloride, potassium chloride], in series [5], the “improvement in sugar-like flavor” value is on record as “about 10%”. For the same molecule, the “optimal level for sugar-like flavor” value in series [5] was 200 mg/L. Also, the figures for the “Does the Electrolyte Salt have Suitable Compatibility (CMP)?” value in series [3] and in series [3] (listed as Potassium chloride) were “Yes” and “passed”, respectively. Further, the “Does the Electrolyte Salt Have Suitable Taste (TAS)?” value in series [2] (setting [7]) is given as “Yes”. The “Does the Electrolyte Salt Have Suitable Solubility?” value in series [6] is “Yes”. Also, the “Does the Electrolyte Salt have Suitable Shelf Stability?” value in series [4] is listed as “Yes”.

On to `O=S(=O)([O-])[O-].[Mg+2]` [Magnesium Sulfate, magnesium sulfate], for which the “Does the Electrolyte Salt Have Suitable Taste (TAS)?” value in series [2] (in vivo) is “NO, Develops sour and dry flavor; also recorded: tasted sour”.

With `[Cl-].[Na+]` [Sodium Chloride, sodium chloride], the “taste of sweetened, potassium-enriched water with sodium chloride” value in series [5] (HPS 1300 mg/L, potassium 200 mg/L, dietary sodium level of 150 grams per liter (so in the source)) is “thick and only mildly salty”. In addition, the “taste of sweetened, potassium-enhanced water with sodium chloride” value in series [5] (HPS 1300 mg/L, potassium 200 mg/L, sodium level of 600 mg/L) is recorded as “unacceptably salty”. The “improvement in sugar-like flavor” value in series [5] is “about 5%”. For the same molecule, in series [5], the “optimal level for sugar-like flavor” value amounted to 40 mg/L. Further, the “Does the Electrolyte Salt have Suitable Compatibility (CMP)?” value was “Yes” in series [3] and “passed” in series [3] (listed as sodium chloride). For the same molecule, the “Does the Electrolyte Salt Have Suitable Taste (TAS)?” value in series [2] (setting [7]) is “Yes”.

In the case of `CC(O)C(=O)[O-].CC(O)C(=O)[O-].[Ca+2]` (stereo not shown) [Calcium Lactate, calcium lactate], the “Does the Electrolyte Salt have Suitable Compatibility (CMP)?” value in series [3] is “NO, Develops sour/chalky flavor”; in series [3] (listed as calcium lactate) it was “sour and chalky”. The “Does the Electrolyte Salt Have Suitable Taste (TAS)?” value in series [2] (setting [7]) was “Yes”. Also, the “Does the Electrolyte Salt have Suitable Shelf Stability?” value in series [4] is “Yes”.
